In patent US20100093642A1, “NOVEL POLYPEPTIDES” (priority 2006, published 2010):
Converted amounts (≈) assume the structure as drawn. Residues, ends and D or L forms follow the SMILES beside them. No end group written: not given here.

Assays:
E. coli (ATCC 25922) = assay type: cell-based, Escherichia coli
Description: (§1) The antibacterial activities of the different peptides were determined by continuous monitoring of bacterial growth with a Bioscreen C microbiology reader (Labsystems Oy, Helsinki, Finland). The test was performed in 100-well flat-bottomed honeycomb plates, in which 50 μl of test fractions were incubated with 50 μl of a suspension of an actively growing culture of bacteria diluted in Mueller Hinton medium to a starting concentration of 3×10^4 cells per ml. […] [NT] 13032) and S. aureus (ATCC 9144), were chosen as test bacteria. […] Polymyxin B (Sigma, St.

Pseudomonas aeruginosa = assay type: cell-based
Description: as §1

S. aureus (ATCC 9144) = assay type: cell-based, Staphylococcus aureus; conditions: ATCC 9144
Description: as §1

Botrytis cinerea 101 = conditions: 48 h
Description: (§2) The various derivates of P17 (brominated and non-brominated) were tested for their ability to inhibit fungal growth of the yeast strains Saccaharomyces cerevisiae sp, Candida albicans (ATCC 10231) and Rodotorula sp., and the filamentous strains Botrytis cinerea 101, Penicillium rogveforti, and Fusarium sp. All strains, except C. albicans, were a gift from Prof. A. Tronsmo (The Norwegian University of Life Sciences, Ås, Norway). The fungi were cultivated on potato dextrose agar, supplemented with 2% glucose, at room temperature. Before antifungal testing, the fungi were dissolved in potato dextrose broth (Difco) at half-strength. Cell concentration was determined and adjusted after counting in a Bürker chamber. The filamentous fungi were filtered through a piece of cotton before counting. An aliquot of 50 μl of fungal spores (final concentration 2×10^5 spores per ml) were inoculated in microtiter plates (96 wells) along with 50 μl peptide solution. Peptides, dissolved in distilled water, were tested at final concentrations (two-fold dilutions) ranging from 50 μM to 0.1 μM. Cultures were grown in the dark (without shaking) and with a moist chamber at 25° C. (37° C. for C. albicans). Growth inhibition was determined microscopically after 48 h of incubation. MIC was determined as the lowest concentration of peptide resulting in 50% inhibition of visible growth.

[1] = tested on: Candida albicans (ATCC 10231); conditions: ATCC 10231, 48 h
Description: as §2

Saccharomyces cerevisiae = conditions: 48 h
Description: as §2

[2] = tested on: Salmonella enterica serovar typhimurium (ATCC 14028); test: Bacterial cell viability, lux luminescence and OD600, with or without LPS; assay type: cell-based; conditions: co-incubation with 2.5 μM Aeromonas salmonicida LPS
Description: To evaluate the effect of antimicrobial peptides on the viability of bacteria in a fast and reliable manner we used the lux CDABE operon from Photorhabdus luminescens as a reporter system in gram negative test bacteria and the modified luxABCDE operon in S. aureus (Vesterlund et al. 2004). Bacterial bioluminescence is directly dependent on metabolic activity, since reduction equivalents are needed to drive light emission. Any form of interruption of bacterial cell integrity or metabolism will therefore be detected as a reduction in light emission.
For the assay we used S. aureus (RN4220), E. coli K-12 and Salmonella enterica serovar typhimurium (ATCC 14028) transformed with the respective lux-operon containing plasmids (Vesterlund et al. 2004).
For each experiment a fresh colony was picked from Luria-Bertani plates supplemented with 10 μg/ml of erythromycin in case of S. aureus and with 100 μg/ml of ampicillin in case of E. coli and S. enterica serovar Typhimurium. Each colony was suspended in 5 ml of Müller-Hinton medium with appropriate antibiotics. The culture was incubated over night at 37° C. in a shaking incubator. The next morning 0.5 ml of this culture was transferred to 30 ml fresh MH medium in an Erlenmeyer-flask supplemented with the respective antibiotic. The flask was incubated (200 rpm shaking; 37° C.) until an OD600 of 0.5-0.8 was reached. The culture was then diluted to an OD600 of about 0.02-0.03 before transfer to the 96 well opaque plates with optical bottom (Packard ViewPlate) used for the assay.
The synthesized peptides were dissolved in water and aliquots frozen at −18° C. until use. Twofold dilutions of test peptides (final concentrations ranging from 0.31 to 80 μM) were directly prepared in 96 well microtiter plates in a volume of 10 μl in water. 90 μl is of indicator bacteria in MH medium were added directly to the prepared and pre-warmed (30 minutes at 37° C.) plate before starting the measurement in a Victor multiplate reader (Perkin Elmer) at 37° C. Both OD600 and luminescence in counts per second (cps) were followed over 5 hours in measuring intervals of 5 minutes. The plates where shaken before each measurement (20 sec.; 5 mm orbital shaking; 10 sec waiting). The growth curves and light emission curves were drawn and evaluated to determine the MIC for each indicator strain. The MIC was defined as the concentration of test compound causing more than 50% reduction in bioluminescence (cps) or optical density (OD600) after 5 hours, compared to the growth control. Cecropin P1 was used as positive control. The results (table 14a-b) confirm the results obtained in example 2, showing a pronounced antibacterial effect of the longest peptide fragments. […] The partial peptides P17 HC (1-20), both bromated and unbromated, inhibit growth only in higher concentrations.
A second plate with an otherwise similar setup (as described for the luminescence assay in example 3) was prepared, but with addition of Aeromonas salmonicida LPS to the peptide dilutions before pre-warming. The LPS end concentration in each well was approximately 2.5 μM.

[3] = tested on: C. glutamicum (ATCC 13032); assay type: cell-based, Corynebacterium glutamicum
Description: as §1

Row | Molecule | Minimal inhibitory concentration, E. coli (E. coli (ATCC 25922)) [µM] | Minimal inhibitory concentration, P. aeruginosa (Pseudomonas aeruginosa) [µM] | Minimal inhibitory concentration, S. aureus (S. aureus (ATCC 9144)) [µM] | Minimal inhibitory concentration (MIC), Botrytis cinerea (Botrytis cinerea 101) [µM] | Minimal inhibitory concentration (MIC), Candida albicans [1] [µM] | Minimal inhibitory concentration (MIC), Saccharomyces cerevisiae (Saccharomyces cerevisiae) [µM] | MIC, more than 50% reduction in optical density, S. enterica, P + LPS ([2]; OD600, 5 hours) [µM] | MIC, more than 50% reduction in luminescence, S. enterica, P + LPS ([2]; luminescence (cps), 5 hours) [µM] | Minimal inhibitory concentration, C. glutamicum [3] [µM]
1 | NCCCC[C@H](NC(=O)[C@H](CCCCN)NC(=O)[C@H](Cc1ccccc1)NC(=O)C(Cc1c[nH]c2ccc(Br)cc12)NC(=O)CN)C(=O)O (some centres unmarked) [P17 HC-Br (1-5)] (HELM PEPTIDE1{G.[O=C(C(Cc1c[nH]c2ccc(Br)cc12)N[*:1])[*:2]].F.K.K}$$$$V2.0; N-terminus and C-terminus assumed) | 25 (≈ 18.6 µg/mL) | >50 | >100 | >100 | >100 | >100 |  |  | 
2 | CC(C)[C@H](NC(=O)[C@H](CCCCN)NC(=O)[C@H](Cc1c[nH]cn1)NC(=O)[C@H](Cc1ccccc1)NC(=O)[C@@H](NC(=O)[C@H](CCCCN)NC(=O)[C@H](CCCCN)NC(=O)[C@H](Cc1ccccc1)NC(=O)C(Cc1c[nH]c2ccc(Br)cc12)NC(=O)CN)[C@@H](C)O)C(=O)O (some centres unmarked) [P17 HC-Br (1-10)] (HELM PEPTIDE1{G.[O=C(C(Cc1c[nH]c2ccc(Br)cc12)N[*:1])[*:2]].F.K.K.T.F.H.K.V}$$$$V2.0; N-terminus and C-terminus assumed) | 25 (≈ 33.9 µg/mL) | >50 | >100 | 50 (≈ 67.8 µg/mL) | 25 (≈ 33.9 µg/mL) | 25 (≈ 33.9 µg/mL) | 40 | 20 | 
3 | GQRGCSALGF [P17 HC (21-30)] | >100 | >100 | >100 | >100 | >100 | >100 |  |  | >100
4 | GWFKK [P17 HC (1-5)] | >100 | >100 | >100 | >100 | >100 | >100 |  |  | >100
5 | GWFKKTFHKV [P17 HC (1-10)] | 100 | 100 | >100 | 100 | 25 | 25 |  |  | 12.5
